Data as given in US20210186888A1, “NANOPARTICLE COMPOSITIONS FOR CANCER TREATMENT” (priority 2017, published 2021).

Tests used:
Format in all cases: cell-based
BT-549 = assay: MTT assay
Experimental: (§1) MTT assay: Cells were grown to log phase in their respective media, washed in PBS, trypsinized, and plated on 96-well plates at a density of 3,000-6,000 cells per well in 200 μL of complete media. Cells were allowed to recover for 18 hours and were then exposed to AgNPs for 48 or 72 hours. For NAC studies, cells were exposed to 4 mM NAC (Sigma Aldrich) diluted in growth media for 6 h prior to AgNP treatment. Media containing NAC was removed and replaced with media containing AgNPs. For induction of EMT, cells were exposed to 10 ng/ml TGF-β1 (R&D Systems) for 6 days at 37° C., prior to AgNP treatment. Media containing AgNPs were replaced with 200 μL of media containing 0.5 mg/mL MTT and incubated for 1 hour at 37° C. Medium was removed, and cells were lysed in 200 μL of DMSO and read using a Molecular Devices Emax Precision Microplate Reader at 560 nm and corrected for background at 650 nm.
ZEB1 Knockdown: BT549 cells were plated in 60mm tissue culture plates and allowed to grow to 80-90% confluence. Each plate was then transfected with a non-coding control shRNA plasmid, or a plasmid containing shRNA targeted against ZEB1. Knockdown constructs used in this study were obtained from Sigma Aldrich (Mission shRNA TRCN0000369267 and TRCN0000369266). Each plate was transfected using 1 μg plasmid in conjunction with Lipofectamine 2000 (Invitrogen) according to the manufacturer's protocol. The following day cells were reseeded and were maintained in medium containing puromycin (2 μg/ml). ZEB1 expression levels were verified using immunoblot prior to experimentation.
TNBC cell lines which can be further classified as the CLBC (MDA-MB-231, BT-549, SUM-159) or basal (BT-20, MDA-MB-468) molecular subtypes were tested, as were luminal A (MCF-7), HER-2+ (SKBR3), and non-cancerous breast (MCF-10A, 184B5, iMEC) cell lines (FIG. 2A). […] As with the 48 h treatment, the CLBC cell lines were the most sensitive to AgNPs following a 72 h treatment.
(§2) IC50 calculations were performed using the prism software. IC50 in Table II are shown in total NP (AgNP) concentration and silver (Ag) content. At least 3 independent experiments were conducted for each cell line.
BT549 claudin-low breast cancer cells were treated with either AgNPs or KRIBB11, an HSF1 inhibitor, independently and in combination. The treated cells were then assessed for cell viability by MTT assay (FIG. 17A).
BT549 claudin-low breast cancer cells were treated with either AgNPs or 17-DMAG, an HSP90 inhibitor, independently and in combination. Treated cells were then assessed for cell viability by MTT assay (FIG. 19A). […] Combination treatment of both AgNPs and […]

MDA-MB-231 = assay: MTT assay
Experimental: as §1
As with the 48 h treatment, the CLBC cell lines were the most sensitive to AgNPs following a 72 h treatment.
as §2

[1] = system: PERK arm of the UPR in MDA-MB-231 cells; assay: Immunoblotting of PERK arm activation (p-eIF2α); settings: 4 h
Experimental: MDA-MB-231 cells were treated with 1 μM of the ER stress inducer, thapsigargin, 25 nM of the PERK inhibitor (PERKi), […], or the combination of thapsigargin and GSK2606414 for 4 h to verify the efficacy of the PERKi, GSK2606414. […] To further evaluate the role of ER stress in AgNP-induced cytotoxicity, MDA-MB-231 cells were treated with increasing doses of AgNPs alone or in combination with the PERKi, GSK2606414, for 48 h to determine if PERK inhibition provides protection against AgNP-induced cytotoxicity.

BT-20 = assay: MTT assay
Experimental: as §1
TNBC cell lines which can be further classified as the CLBC (MDA-MB-231, BT-549, SUM-159) or basal (BT-20, MDA-MB-468) molecular subtypes were tested, as were luminal A (MCF-7), HER-2+ (SKBR3), and non-cancerous breast (MCF-10A, 184B5, iMEC) cell lines (FIG. 2A). […]
BT20 basal-like breast cancer cells were treated with either AgNPs or KRIBB11, an HSF1 inhibitor, independently and in combination. Treated cells were then assessed for cell viability by MTT assay (FIG. 18A).

[2] = system: AgNP sensitive cell lines; assay: ROS detection with H2DCF-DA; settings: 24 h 10 mM NAC

CO[C@H]1/C=C\C=C(/C)C(=O)NC2=CC(=O)C(NCCN(C)C)=C(C[C@@H](C)C[C@H](OC)[C@H](O)[C@@H](C)/C=C(\C)[C@@H]1OC(N)=O)C2=O [17-DMAG]
sensitivity to AgNPs versus HSP90 inhibition (dose reduction index) (BT-549; BT549, single agents): equally sensitive

Cn1cc(-c2ccc3c(c2)CCN3C(=O)Cc2cccc(C(F)(F)F)c2)c2c(N)ncnc21 [GSK2606414]
viability, AgNPs alone vs in combination with the PERKi (MDA-MB-231; MDA-MB-231, 48 h): no significant difference in viability
p-eIF2α expression, co-treatment with thapsigargin vs thapsigargin alone ([1]; MDA-MB-231, 25 nM PERKi + 1 μM thapsigargin): decreased p-eIF2α expression

CNc1ccc([N+](=O)[O-])c(Nc2ccc3[nH]ncc3c2)n1 [KRIBB11]
combination treatment with AgNPs (combination index) (BT-20; BT20, AgNPs + HSF1 inhibitor): synergistic response
sensitivity to AgNPs versus HSF1 inhibition (dose reduction index) (BT-20; BT20, single agents): marginally more sensitive to AgNPs
combination treatment with AgNPs (combination index) (BT-549; BT549, AgNPs + HSF1 inhibitor): synergistic response
combination treatment with AgNPs (combination index) (BT-549; BT549, AgNPs + HSP90 inhibitor): additive response
sensitivity to AgNPs versus HSF1 inhibition (dose reduction index) (BT-549; BT549, single agents): equally sensitive

CC(=O)N[C@@H](CS)C(=O)O [NAC, N-acetylcysteine]
basal ROS after NAC treatment [2]: partially mitigate some of the basal ROS
effect of NAC pre-treatment on AgNP cytotoxicity (BT-549; BT-549, 4 mM NAC 6 h before 48 h AgNP, Ag 62.5-125 μg/ml): significantly decreased cytotoxicity
effect of NAC pre-treatment on AgNP cytotoxicity (MDA-MB-231; MDA-MB-231, 4 mM NAC 6 h before 48 h AgNP, Ag 15.625-62.5 μg/ml): significantly decreased cytotoxicity

C/C=C(/C)C(=O)O[C@H]1C(C)=C2[C@H]([C@@H]1OC(=O)CCCCCCC)[C@@](C)(OC(C)=O)C[C@H](OC(=O)CCC)[C@@]1(O)[C@H]2OC(=O)[C@@]1(C)O [thapsigargin, Thapsigargin]
phosphorylation of eIF2α (p-eIF2α) ([1]; MDA-MB-231, 1 μM): increase in phosphorylation of the downstream effector, eIF2α
